Measured values published in patent publication US9701987B2, “Fermentation process for the production and control of pyruvate-derived products” (priority 2014, dated 2017).
Read-outs that look alike come from different tables or passages of the source.

Tests used:
[1] = system: Clostridium autoethanogenum
Source text: A fermentation was started using the general fermentation process with gas and agitation were increased to minimize acetate and maximize ethanol production. Dilution rate and bacterial dilution rate were adjusted by day 4.0 to 2.0 day-^1 and 1.2 day-1, respectively. These values were maintained for the remainder of the fermentation.
On day 14.1 the concentration of B1 in media was decreased to reduce the specific B1 feed rate with all other operational parameters being kept constant.
It has been reported in the art that the limiting concentration of B1 for growth and acetate production is 6.5 μg/g cell produced.

[2] = reported in the art; cited from earlier work
[3] = system: Clostridium autoethanogenum; assay: Example 1: fermentation with vitamin B5 concentration increased during the run, effect on 2,3-BDO production; assay type: cell-based
Description: This experiment was carried out according to the general fermentation process described above. […] Dilution rate and bacterial dilution rate were adjusted so that by day 5.0 these were 1.8 day^−1 and 0.85 day^−1, respectively.
On day 8.1 the concentration of vitamin B5 in media was increased 10 fold with all other operational parameters remaining the same. During this time the biomass production rate dropped slightly so accordingly the vitamin B5 feed rate was increased just over tenfold to 2180 μg/g-cell produced. Following the increase in the vitamin B5 concentration, the specific 2,3-BDO production rate and concentration increased with other parameters remaining stable.
This is a surprising result as it is only the specific 2,3-BDO production rate and the concentration of 2,3-BDO that increases while the production rate of other metabolites, e.g. ethanol and biomass remains the same.

[4] = system: Clostridium autoethanogenum; assay: Example 3: fermentation with excess vitamin B5 from the start, effect on 2,3-BDO production; assay type: cell-based
Description: The example above can be compared to results when excess B5 vitamin is present in the fermentation media throughout the fermentation. […] In this case the 2,3-BDO concentration reached 9 g/L with an ethanol:2,3-BDO ratio of 2:1 (FIG. 2), and a CO uptake of 9.4 mol/L/day (FIG. 3). The feed rate of B5 vitamin throughout the fermentation was >2000 μg/g-cell produced. During day 6.0 to 7.0 as the biomass and 2,3-BDO production flattened out the feed rate of B5 vitamin was 2011 μg/g-cell produced. The specific 2,3-BDO production rate was 1.2 g/day per g-biomass, the specific ethanol production rate was 2.4 g/day per g-biomass.

Clostridium ljungdahlii = settings: WO 2002/08438; cited from earlier work
[5] = system: Clostridium autoethanogenum; assay: Example 5: fermentation with vitamin B7 concentration increased then reduced, effect on 2,3-BDO production; assay type: cell-based
Description: In this example the impact of B7 on the production of 2,3-BDO was tested using a fermentation grown according to the general fermentation process. […] Dilution rate and bacterial dilution rate were adjusted so that by day 8.0 these were 1.8 day^−1 and 0.75 day^−1 respectively. […] The results achieved at that time are summarised below;
On day 8.69 the concentration of B7 in media was increased 10 fold with all other operational parameters being kept constant. During this time the biomass production rate remained stable so the B7 feed rate was increased over tenfold to 980 μg/g cell produced. Following the increase in the B7 feed the specific 2,3-BDO production rate and the concentration of 2,3-BDO increased. The data obtained from days 13-14 are summarised below;
As the 2,3-BDO concentration was reaching a peak (day 14.04) the B7 in the media was reduced 10 fold such that the specific B7 feed rate was reduced back to 90 μg/g cell produced.
This is a surprising result as it is the specific 2,3-BDO production rate and the concentration of 2,3-BDO that increases rather than any other metabolite and or biomass.

[6] = vitamin B1 feed rate 303 μg/g cell produced, day 10.0-14.0
[7] = vitamin B1 feed rate decreased to 61 μg/g cell produced
[8] = vitamin B5 feed rate 198 μg/g-cell produced, day 6.0-8.0
[9] = vitamin B5 feed rate 2180 μg/g cell produced
[10] = B5 vitamin feed rate 2011 μg/g-cell produced, day 6.0 to 7.0
[11] = B5 vitamin feed rate >2000 μg/g-cell produced throughout the fermentation
[12] = vitamin B7 feed rate 90 μg/g cell produced, before increase
[13] = vitamin B7 feed rate 980 μg/g cell produced, days 13-14
[14] = vitamin B7 reduced back to 90 μg/g cell produced (after day 14.04)

Cc1ncc(C[n+]2csc(CCO)c2C)c(N)n1.Cl.[Cl-] [vitamin B1, Thiamine hydrocloride]
effect of decreasing the B1 concentration on ethanol production ([1]; B1 feed rate 303 to 61 μg/g cell produced, CO uptake constant): unaffected
2,3-BDO concentration [1, 6]: 3.4 g/L
Biomass [1, 6]: 5.79 g/L
CO uptake [1, 6]: 8.0 mol/L/day
Ethanol concentration [1, 6]: 16.05 g/L
Specific 2,3-BDO production rate [1, 6]: 1.17 g 2,3-BDO/g biomass/day
Specific Ethanol production rate [1, 6]: 5.54 g ethanol/g biomass/day
2,3-BDO titre [1, 7]: 1.6 g/L
Biomass [1, 7]: 6.75 g/L
CO uptake [1, 7]: 8.0 mol/L/day
Ethanol concentration [1, 7]: 18.23 g/L
Specific 2,3-BDO production rate [1, 7]: 0.47 g 2,3-BDO/g biomass/day
Specific Ethanol production rate [1, 7]: 5.4 g ethanol/g biomass/day
limiting concentration of B1 for growth and acetate production [2]: 6.5 μg/g cell produced

CC(C)(CO)[C@@H](O)C(=O)NCCC(=O)O [vitamin B5, Pantothenic acid]
2,3-BDO concentration [3, 8]: 4.8 g/L
Acetate concentration [3, 8]: 7.75 g/L
CO uptake [3, 8]: 8.4 mol/L/day
Ethanol concentration [3, 8]: 18.69 g/L
Specific 2,3-BDO production rate [3, 8]: 0.81 g 2,3-BDO/g-biomass/day
Specific Ethanol production rate [3, 8]: 3.17 g ethanol/g-biomass/day
Biomass ([3]; vitamin B5 feed rate 198 μg/g-cell produced, stable period day 6.0-8.0): 10.62 g/L
2,3-BDO concentration [3, 9]: 7.0 g/L
CO uptake [3, 9]: 8.0 mol/L/day
Ethanol concentration [3, 9]: 19.49 g/L
Specific 2,3-BDO production rate [3, 9]: 1.32 g 2,3-BDO/g biomass/day
Specific Ethanol production rate [3, 9]: 3.3 g ethanol/g biomass/day
Biomass ([3]; vitamin B5 feed rate 2180 μg/g cell produced, after 10 fold increase on day 8.1): 10.4 g/L
Specific 2,3-BDO production rate [4, 10]: 1.2 g/day per g-biomass
Specific Ethanol production rate [4, 10]: 2.4 g/day per g-biomass
2,3-BDO concentration [4, 11]: 9 g/L
CO uptake [4, 11]: 9.4 mol/L/day
vitamin B5 required for growth (Clostridium ljungdahlii): 50 μg/g biomass produced

O=C(O)CCCC[C@@H]1SC[C@@H]2NC(=O)N[C@@H]21 [vitamin B7, Biotin]
impact of increasing B7 on the specific ethanol production rate ([5]; B7 feed rate 90 to 980 μg/g cell produced): does not impact
2,3-BDO concentration [5, 12]: 4.94 g/L
Acetate concentration [5, 12]: 8.13 g/L
Biomass [5, 12]: 9.42 g/L
CO uptake [5, 12]: 8.0 mol/L/day
Ethanol concentration [5, 12]: 15.63 g/L
Specific 2,3-BDO production rate [5, 12]: 1.19 g 2,3-BDO/g biomass/day
Specific Ethanol production rate [5, 12]: 3.78 g ethanol/g biomass/day
2,3-BDO concentration [5, 13]: 7.34 g/L
Biomass [5, 13]: 9.23 g/L
CO uptake [5, 13]: 7.6 mol/L/day
Ethanol concentration [5, 13]: 14.92 g/L
Specific 2,3-BDO production rate [5, 13]: 1.97 g 2,3-BDO/g biomass/day
Specific Ethanol production rate [5, 13]: 3.85 g ethanol/g biomass/day
2,3-BDO concentration [5, 14]: 4.76 g/L
Biomass [5, 14]: 10.53 g/L
CO uptake [5, 14]: 7.6 mol/L/day
Ethanol concentration [5, 14]: 15.70 g/L
Specific 2,3-BDO production rate [5, 14]: 1.1 g 2,3-BDO/g biomass/day
Specific Ethanol production rate [5, 14]: 3.59 g ethanol/g biomass/day
